Where “and” joins values, the source holds several entries; their conditions need not be identical. Equal entries are not always repeated. Where two headings read alike, the source gives them in different places.
Tests used:
[1] = target: T1, α1 homomeric glycine receptors (Rattus norvegicus, UniProt P07727); assay: Whole-cell patch-clamp, Cl- current activated via α1 homomeric glycine receptors in transfected HEK 293 cells; assay type: cell-based
T1 construct: expressed in transfected cells; host or cells: HEK 293 (transient transfection by electroporation, cDNA in pCIS2 vector)
T1 sequence (P07727 29-457): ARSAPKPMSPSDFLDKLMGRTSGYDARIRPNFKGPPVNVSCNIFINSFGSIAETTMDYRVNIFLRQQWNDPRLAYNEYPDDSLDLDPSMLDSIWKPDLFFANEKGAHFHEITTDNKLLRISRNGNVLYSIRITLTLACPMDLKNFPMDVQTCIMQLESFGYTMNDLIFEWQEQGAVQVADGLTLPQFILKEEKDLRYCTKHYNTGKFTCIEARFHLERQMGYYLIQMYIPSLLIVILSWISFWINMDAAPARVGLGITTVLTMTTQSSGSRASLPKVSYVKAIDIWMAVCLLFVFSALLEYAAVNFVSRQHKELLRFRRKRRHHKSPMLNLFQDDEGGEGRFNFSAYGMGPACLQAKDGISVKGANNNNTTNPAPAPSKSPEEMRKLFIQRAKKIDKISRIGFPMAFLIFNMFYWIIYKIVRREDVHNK
Method: Cells were cultured in Dulbecco's modified Eagle's medium (DMEM, Biochrom, Berlin, Germany), supplemented with 10% fetal calf serum (FCS, Biochrom, Berlin, Germany), 100 U ml^−1 penicillin and 100 μg ml^−1 streptomycin at 37° C. in a 5% CO2/air incubator. […] For co-transfection of rat α1 glycine receptor subunits, the corresponding cDNA, each subcloned in the pCIS2 expression vector (Invitrogen, San Diego, USA), was added to the suspension. To visualize transfected cells, they were co-transfected with cDNA of green fluorescent protein (GFP 10 μg ml^−1). For transfection, we used an electroporation device by EquiBio (Kent, UK).
The compounds according to the present invention under investigation were prepared as 1 M stock solution in ethanol, light-protected and stored in glass vessels at −20° C. Concentrations were calculated from the amount injected into the glass vials. Drug-containing vials were vigorously vortexed for 60 min. Glycine and picrotoxin were dissolved directly in bath solution.
Patch electrodes contained [mM] KCl 140, MgCl2 2, EGTA 11, HEPES 10, glucose 10; the bath solution contained [mM]
A tight electrical seal of several GΩ formed between the cell membrane and a patch-clamp electrode allows inward currents due to agonist-induced channel activation to resolve in the pA range. Electrical resistance of the pipettes was around 5 MΩ, corresponding to a total access resistance in the whole-cell configuration of about 10 MΩ. The compounds according to the present invention under investigation were applied to the cells via a smooth liquid filament achieved with a single outflow (glass tubing 0.15 mm inner diameter) connected to a piezo crystal. The cells were placed at the interface between this filament and the continuously flowing background solution. When a voltage pulse was applied to the piezo, the tube was moved up and down onto or away from the cell under investigation. Correct positioning of the cell in respect to the liquid filament was ensured applying a saturating (1000 μM) glycine pulse before and after each test experiment. Care was taken to ensure that the amplitude and the shape of the glycine-activated current had stabilized before proceeding with the experiment. Test solution and glycine (1000 μM) were applied via the same glass-polytetrafluoroethylen perfusion system, but from separate reservoirs. The contents of these reservoirs were mixed at a junction immediately before entering the superfusion chamber.
The compounds under test were applied alone in order to determine their direct agonistic effects. A new cell was used for each compound and each protocol, at least three different experiments were performed for each setting. The amount of the diluent ethanol corresponding to the highest compound concentration used was 34 000 μM.
For data acquisition and further analysis the inventors used the Axopatch 200B amplifier in combination with pClamp6 software (Axon Instruments, Union City, Calif., USA). Currents were filtered at 2 kHz. Fitting procedures were performed using a non-linear least-squares Marquardt-Levenberg algorithm. Details are provided in the appropriate figure legends or in the results section.
Activated currents were normalized to their own maximum response. The dose-response-curves were fitted according to (Inorm=[1+(EC50/[C])^nH]^−1), where Inorm is the current induced directly by the respective concentration [C] of the compound, normalized to the maximum inward current.

in vivo = assay type: in vivo; details: rat; for Tmax: read-out: tmax (converted); for half-life: mean n=3, read-out: t1/2
Method: […] Whole blood samples were taken from a lateral tail vein for plasma separation at time points 0 min, 30 min, 1 h, 2 h and 4 h after p.o. dosing; and 0 min, 15 min, 30 min, 1 h, and 2 h after i.v. dosing, while the terminal samples at time point 6 h after dosing (p.o and Lv.) were taken by cardiac puncture. All time points were taken from a single rat, and all experiments were carried out in triplicate.
The samples were thawn at room temperature and prepared by protein precipitation with ratio 1:2 of plasma and acetonitrile and were centrifuged 10 minutes at 16 100×g (Eppendorf 5415D, Eppendorf AG, Hamburg, Germany) before injection to UPLCIMSMS system. The standard samples were prepared similarly, after spiking blank plasma samples to 0.5, 2, 5, 10, 20, 50, 200, 500, 1000 and 2000 ng/ml of the analyte compounds.
The pharmacokinetic parameters for study compounds were calculated by WinNonlin Pro (Pharsight Corp, CA) using standard noncompartmental methods. The volume of distribution (Vd) was based on the terminal phase. The elimination phase half-life (t1/2) was calculated by least-squares regression analysis of the terminal linear part of the log concentration-time curve. The area under the plasma concentration-time curve (AUC) was determined by use of the linear trapezoidal rule up to the last measurable concentration and thereafter by extrapolation of the terminal elimination phase to infinity. The area under the plasma concentration-time curve without terminal extrapolation is reported as AUC 0-6 h. The mean residence time (MRT) representing the average amount of time a compound remains in a compartment or system was calculated extrapolating the drug concentration profile to infinity. The maximum plasma concentration (cmax) and the time to cmax (tmax) were derived directly from the plasma concentration data. The tentative oral bioavailability (F) was calculated by dividing the AUC after p.o. administration by the AUC after i.v. administration taking into account the differences in dose, i.e. F=AUC(p.o.)/Dose(p.o.)/AUC(i.v)/[…], and reported as percentages (%).
A Waters Acquity chromatographic system (Waters Corp., Milford, Mass., USA) with autosampler, vacuum degasser and column oven was used. The analytical column used for all compounds was a Waters BEH ShieldRP18, (2.1×50 mm, 1.7 μm, Waters Corp, Milford, Mass., USA) together with an on-line filter. The eluents were 0.1% acetic acid (A, pH 3.2) and acetonitrile (B). A linear gradient elution from 5% B to 35% B in 0-2 minutes, from 35% B to 85% B in 2.0-3.0 min was employed, followed by 1 min isocratic elution with […] and column equilibration. The flow rate was 0.5 ml/min and the column oven temperature was 35° C. LC/MS/MS/data was acquired with a Micromass Quattro Premier triple quadrupole mass spectrometer equipped with a LockSpray electrospray ionization source. A negative ion mode ionisation was used. The multiple reaction monitoring (MRM) mode of detection was used. The mass spectrometer and UPLC system were operated under Micromass MassLynx 4.1 software. Complete LC/MS/MS parameters are presented in Appendix I.
Detection/quantitation limits between 2 ng/ml and 10 ng/ml in plasma were obtained for each compound. Calibration curves for quantification were generated by fitting the ratio of the external standard peak areas as a function of the concentration, excluding the point of origin and using 1/x weighting and linear or quadratic fitting. The ranges up to 2000 ng/ml were fitted for calibration curves. […] The overall precisions 12.0-17.0% were calculated from the standard samples (two injection/concentration), using Snedecor equation S=(Σd^2/2n)^0.5, in which S=precision, d is the difference between duplicates expressed as % of the mean value, and N is the number of standard concentration. The concentrations of each study compound in the samples are shown in the Appendices IV-VI.

[2] = EC50 (nM), α1 homomer, initial tests, Hill fit to normalised response, rat α1 receptors in HEK 293
[3] = initial tests, Hill fit to normalised response
[4] = plasma, iv, i.v. 1 mg/kg, mean n=3
[5] = 1 mg/kg i.v., individual animals, 1 mg/kg
[6] = 8 mg/kg p.o., individual animals, 8 mg/kg

SMILES: CC(C)c1cc(NC(=O)C(F)(F)F)cc(C(C)C)c1O [4-trifluoroacetamide-propofol, 4-Trifluoroacetamide-propofol]
- EC50 [1, 2]: 0.3 nM
- EC50 ([1]; EC50, further series of tests (later tests)): 0.11 nM

SMILES: CC(C)c1cc(-c2ccc(-c3ccccc3)cc2)cc(C(C)C)c1O [4-(p-biphenyl)-propofol]
- EC50 [1, 2]: 0.8 ± 0.2 nM
- nH (Hill coefficient), α1 homomer [1, 3]: 2.6 ± 1.2

SMILES: CC(C)c1cc(-c2ccc(C(C)(C)C)cc2)cc(C(C)C)c1O [4-(p-tert-butylphenyl)-propofol]
- EC50 [1, 2]: 0.05 ± 0.03 nM
- nH (Hill coefficient), α1 homomer [1, 3]: 2.0 ± 0.4

SMILES: CC(C)c1cc(Cl)cc(C(C)C)c1O [4-Cl-propofol, 4-Chloropropofol]
- clearance (in vivo; [4]): 148 mL/min/kg
- Tmax (in vivo; [4]): 15 min
- bioavailability (in vivo; plasma, oral, 8 mg/kg p.o. vs 1 mg/kg i.v., read-out: F (%) tentative oral bioavailability): 72.4%
- Tmax (in vivo; plasma, po, p.o. 8 mg/kg, mean n=3): 30 min
- tmax (in vivo; 1 mg/kg i.v., individual animals): 15 min
- AUC (in vivo; [5]): 10.7 µg·min/mL and 5.43 µg·min/mL and 6.01 µg·min/mL
- CL/F (in vivo; [5]): 93.2 mL/min/kg and 184 mL/min/kg and 166 mL/min/kg
- MRT (in vivo; [5]): 31.8 min and 80.8 min and 33.6 min
- cmax (in vivo; [5]): 170 ng/mL and 70 ng/mL and 90 ng/mL
- t1/2 (in vivo; [5]): 16.3 min and 81.8 min and 48.2 min
- tmax (in vivo; 8 mg/kg p.o., individual animals): 30 min
- AUC (in vivo; [6]): 33.2 µg·min/mL and 34.9 µg·min/mL and 60.4 µg·min/mL
- CL/F (in vivo; [6]): 229 mL/min/kg and 133 mL/min/kg
- MRT (in vivo; [6]): 305 min and 760 min and 764 min
- cmax (in vivo; [6]): 0.12 μg/mL (2×) and 0.05 μg/mL
- t1/2 (in vivo; [6]): 205 min and 493 min and 496 min
- ADC 0-6 h (in vivo; i.v. 1 mg/kg, mean n=3): 6.29 µg·min/mL
- AUC (in vivo; i.v. 1 mg/kg, mean n=3): 7.39 µg·min/mL
- CL/F (in vivo; i.v. 1 mg/kg, mean n=3): 148 mL/min/kg
- half life (in words) (in vivo; i.v. dosing): intermediate
- clearance (in words) (in vivo; i.v. dosing, compared to rat liver blood flow): very high
- concentration in plasma (in vivo; iv (1 mg/kg), 15 min, individual animals, listed as CK1-1, 1 mg/kg): 172 ng/mL and 70.0 ng/mL and 94.3 ng/mL
- concentration in plasma (in vivo; iv (1 mg/kg), 30 min, individual animals, listed as CK1-1, 1 mg/kg): 26.1 ng/mL and 25.4 ng/mL
- concentration in plasma (in vivo; iv (1 mg/kg), 1 h, individual animals, listed as CK1-1, 1 mg/kg): 15.2 ng/mL and 16.5 ng/mL
- concentration in plasma (in vivo; iv (1 mg/kg), 2 h, individual animals, listed as CK1-1, 1 mg/kg): 33.7 ng/mL and 11.5 ng/mL
- detection in plasma after oral (p.o.) administration (in vivo; p.o.): observed in plasma
- ADC 0-6 h (in vivo; p.o. 8 mg/kg, mean n=3): 18.7 µg·min/mL
- AUC (in vivo; p.o. 8 mg/kg, mean n=3): 42.8 µg·min/mL
- CL (in vivo; p.o. 8 mg/kg, mean n=3): 146 mL/min/kg
- Vd (in vivo; p.o. 8 mg/kg, mean n=3): 79.6 L/kg
- MRT (in vivo; plasma, iv, 1 mg/kg, i.v. 1 mg/kg, mean n=3, read-out: MRT (converted)): 48.7 min
- Vd (in vivo; plasma, iv, 1 mg/kg, i.v. 1 mg/kg, mean n=3, read-out: Vd): 11.8 L/kg
- cmax (in vivo; plasma, iv, 1 mg/kg, i.v. 1 mg/kg, mean n=3, read-out: cmax): 110 ng/mL
- half-life (in vivo; plasma, iv, 1 mg/kg, i.v. 1 mg/kg): 48.8 min
- concentration at 30 min (in vivo; plasma, iv, 1 mg/kg, iv (1 mg/kg), 30 min, individual animals): 47.3 ng/mL
- concentration at 1 h (in vivo; plasma, iv, 1 mg/kg, iv (1 mg/kg), 1 h, individual animals): 13.2 ng/mL
- CL/F (in vivo; plasma, po, 8 mg/kg, 8 mg/kg p.o., individual animals, read-out: CL/F): 241 mL/min/kg
- Vd/F (in vivo; plasma, po, 8 mg/kg, p.o. 8 mg/kg, mean n=3): 110 L/kg
- CL/F (in vivo; plasma, po, 8 mg/kg, p.o. 8 mg/kg, mean n=3, read-out: CL/F): 201 mL/min/kg
- MRT (in vivo; plasma, po, 8 mg/kg, p.o. 8 mg/kg, mean n=3, read-out: MRT (converted)): 609 min
- cmax (in vivo; plasma, po, 8 mg/kg, p.o. 8 mg/kg, mean n=3, read-out: cmax): 100 ng/mL
- half-life (in vivo; plasma, po, 8 mg/kg, p.o. 8 mg/kg): 398 min
- concentration at 4 h (in vivo; plasma, po, 8 mg/kg, po (8 mg/kg), 4 h, individual animals): 61.8 ng/mL
- concentration at 6 h (in vivo; plasma, po, 8 mg/kg, po (8 mg/kg), 6 h, individual animals): 33.8 ng/mL
- concentration in plasma (in vivo; po (8 mg/kg), 30 min, individual animals, listed as CK1-1, 8 mg/kg): 121 ng/mL and 116 ng/mL and 51.0 ng/mL
- concentration in plasma (in vivo; po (8 mg/kg), 1 h, individual animals, listed as CK1-1, 8 mg/kg): 99.8 ng/mL and 47.3 ng/mL and 57.2 ng/mL
- concentration in plasma (in vivo; po (8 mg/kg), 2 h, individual animals, listed as CK1-1, 8 mg/kg): 64.3 ng/mL and 25.3 ng/mL and 52.3 ng/mL
- concentration in plasma (in vivo; po (8 mg/kg), 4 h, individual animals, listed as CK1-1, 8 mg/kg): 36.1 ng/mL and 55.1 ng/mL
- concentration in plasma (in vivo; po (8 mg/kg), 6 h, individual animals, listed as CK1-1, 8 mg/kg): 32.0 ng/mL and 55.3 ng/mL
